Measurements as given in PubChem BioAssay (NCI).
Several values for one entry are separate records, joined by “and”; a condition that tells them apart may be missing. Equal values may be shown once.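 Cultured in 96-well plates, cells were exposed to test compound for 48 hours across five concentrations. Abbreviation: GI50, concentration required for 50% inhibition of growth. Definition used: TGI = concentration required for complete inhibition of growth.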

Key:
Experiment in all cases: growth of human tumour cells (NCI), 48 h
SK-MEL-5 melanoma = test system: SK-MEL-5 melanoma
KM12 colon = test system: KM12 colon
NCI-H226 lung = test system: NCI-H226 lung
SK-OV-3 ovarian = test system: SK-OV-3 ovarian
HOP-62 NSCLC = test system: HOP-62 NSCLC
SF-539 CNS = test system: SF-539 CNS
SR leukemia = test system: SR leukemia
NCI-H23 lung = test system: NCI-H23 lung
PC-3 prostate = test system: PC-3 prostate
DU-145 prostate = test system: DU-145 prostate

| Compound | TGI (SK-MEL-5 melanoma) | TGI (KM12 colon) | TGI (NCI-H226 lung) | TGI (SK-OV-3 ovarian) | TGI (HOP-62 NSCLC) | TGI (SF-539 CNS) | TGI (SR leukemia) [µM] | TGI (NCI-H23 lung) | GI50 (PC-3 prostate) [µM] | TGI (PC-3 prostate) | GI50 (SK-MEL-5 melanoma) [µM] | GI50 (DU-145 prostate) [µM] | TGI (DU-145 prostate) | GI50 (KM12 colon) [µM] | GI50 (NCI-H226 lung) | GI50 (SK-OV-3 ovarian) [µM] | GI50 (HOP-62 NSCLC) [µM] | GI50 (SF-539 CNS) [µM] | GI50 (SR leukemia) [µM] | GI50 (NCI-H23 lung) [µM] |
| --- | --- | --- | --- | --- | --- | --- | --- | --- | --- | --- | --- | --- | --- | --- | --- | --- | --- | --- | --- | --- |
| Cc1ccc(-c2c(N)nc(NC#N)nc2CCC(=O)Nc2ccccc2[N+](=O)[O-])cc1 | > 100 µM | > 100 µM | > 100 µM | > 100 µM | > 100 µM | > 100 µM | > 100 | > 100 µM |  |  |  |  |  |  |  |  |  |  |  |  |
| Cc1ccn2c3c(c(C(=O)O)c2c1)C(=O)c1ccccc1C3=O | 1.97 µM | > 100 µM | 17.4 µM | > 100 µM | > 100 µM | 64.7 µM | > 100 | 5.88 µM | > 100 | > 100 µM | 0.679 | 1.68 | 3.18 µM | 9.31 | 2.46 µM | > 100 | 5.93 | 4.46 | > 30.5 | 1.74 |
| Cc1cc2nc3c4cc(Cl)ccc4n(CCN(C)C)c3nc2cc1C | 3.22 µM | 3.17 µM | 4.24 µM | 10.6 µM | 4.57 µM | 2.94 µM | 2.88 | 3.95 µM | 1.65 | 4.74 µM | 1.8 | 2.14 | 4.62 µM | 1.55 | 1.98 µM | 2.75 | 1.53 | 1.55 | 0.682 | 1.65 |
| CC(C)(C)OC(=O)n1cc(CNC(=S)Nc2ccccc2)c2ccccc21 | 16.6 µM | 18.4 µM | 30.7 µM | 90.1 µM | 38 µM | 25.4 µM | > 100 | 24.4 µM | 10.5 | 23 µM | 4.51 | 7 | 35.4 µM | 5.34 | 14.3 µM | 26.4 | 17.2 | 12.3 | 5.07 | 10.7 |
| Clc1ccccc1C(c1ccccc1)(c1ccccc1)n1ccnc1 | 10.4 µM and 22.3 µM | 6.25 µM and 36.8 µM | 17.7 µM | 13.7 µM and 29.2 µM | 12.5 µM and 26.6 µM | 11.1 µM | 6.93 | 13.1 µM and 26.3 µM | 1.67 | 12.4 µM and 20.2 µM | 2.61 | 4.87 | 17.2 µM and 39.6 µM | 2.23 | 3.13 µM | 3.71 | 2.99 | 3.22 | 1.86 | 2.88 |
| C=CC(=O)N[C@H]1C=C(C)c2c(-c3cnc4ccccc4c3)c3c(N)ncnc3n2C1 | 25.2 µM | 45.6 µM | > 68.1 µM | 4.2 µM | 66.7 µM | 31.6 µM | > 100 | 54.5 µM | 22.7 | > 100 µM | 12.5 | 8.05 | > 100 µM | 19.5 | 8.85 µM | 0.171 | 20.9 | 13.3 | 18.3 | 19.6 |
| Oc1ccccc1/C=N/Nc1ccc2ccccc2n1 | > 100 µM | > 100 µM | > 100 µM | > 100 µM | 44.7 µM | 59.4 µM | > 100 | > 100 µM | 4.5 | > 100 µM | 4.12 | 6.53 | > 100 µM | 3.24 | 4.6 µM | 9.69 | 7.09 | 3.5 | 4.35 | 3.36 |
| O=C1NC2(CCCC2)C(=O)C12CCCC2 | > 100 µM | > 100 µM |  | > 100 µM | > 100 µM | > 100 µM | > 100 | > 100 µM |  |  |  |  |  |  |  |  |  |  |  |  |
| C=CC1=CSNN1 | > 100 µM | > 100 µM |  | > 100 µM | > 100 µM | > 100 µM |  | > 100 µM |  |  |  |  |  |  |  |  |  |  |  |  |
| C1COCCN1.C1COCCN1.N.N.[Cl-].[Pt+2] | > 100 µM |  | > 100 µM |  |  | > 100 µM | > 100 | > 100 µM |  |  | > 100 |  |  |  | > 100 µM |  |  | > 100 | > 100 | > 100 |
| CCOC(=O)C1=C(C)Nc2ccccc2S1 | > 100 µM | > 100 µM | > 100 µM | > 100 µM | > 100 µM | > 100 µM | > 100 | > 100 µM |  |  |  |  |  |  |  |  |  |  |  |  |
| CSC1=NC=CCN1C | > 100 µM | > 100 µM | > 100 µM | > 100 µM | > 100 µM |  |  | > 100 µM |  |  |  |  |  |  |  |  |  |  |  |  |
| COC(=O)C1OC(O[C@H]2CCC3(C)C(CCC4(C)C3CC=C3C5CC(C)(C)CCC5(C(=O)O)CC[C@]34C)C2(C)C)C(O)C(OC2OC(CO)C(O)C(O)C2O)C1O (stereo partly drawn) | 11.4 µM | 28.9 µM | 12.2 µM |  | 11.6 µM |  |  | 11.9 µM | 6.43 | 11.8 µM | 6.14 |  |  | 8.83 | 6.18 µM |  | 6.21 |  |  | 6.46 |
| CC(=O)OC1=C2CC3(C)OC(=O)CC(C)(C)C3=CC=C2C=C(C(C)C)C1=O (stereo not drawn) | 2.12 µM | 3.07 µM | 3.26 µM | 3.54 µM | 19.9 µM |  | 1.01 | 1.47 µM |  |  |  |  |  |  |  |  |  |  |  |  |
| C=CCSC[C@H](NC(=O)COc1ccccc1)C(=O)NC(C(=O)OCc1ccc([N+](=O)[O-])cc1)=C(C)C | > 100 µM | > 100 µM | > 100 µM | > 100 µM | > 100 µM |  |  |  |  |  |  |  |  |  |  |  |  |  |  |  |
| O=c1cc(-c2cccc(F)c2)[nH]c2cc3c(cc12)OCO3 |  |  | 9.77 µM and 1.49 µM | 1.01 µM and 1.03 µM | 21.3 µM | 0.301 µM and 0.247 µM |  | 2.43 µM and 2.83 µM |  | > 89.5 µM | 0.0639 |  | 1.63 µM | 0.332 | 0.951 µM and 0.0963 µM | 0.265 |  | 0.133 |  |  |
| Cn1cc(NC(=O)c2cc(NC(=O)CCCCCCCCCCC(=O)Nc3cc(C(=O)Nc4cc(C(=O)NCCC(=N)N)n(C)c4)n(C)c3)cn2C)cc1C(=O)NCCC(=N)N | 87.8 µM | > 100 µM | > 100 µM | > 100 µM | 81.3 µM | > 100 µM |  | > 100 µM |  |  |  |  |  |  |  |  |  |  |  |  |
